Assay results as given in US20130158024A1, “TRICYCLIC NECROSTATIN COMPOUNDS” (priority 2005, published 2013).
“Also recorded” adds a separate entry of the source. Where a SMILES comes first, the peptide text is derived from it. The star is where a group is joined. Cbz = O=C(OCc1ccccc1)*; CH2F = FC*

Experiments:
Jurkat T cells = test: Necrosis (CICD) of Jurkat T cells induced by Fas ligand, cycloheximide and zVAD, ATP assay; format: cell-based, human; conditions: FasL/CHX/zVAD
Description: Jurkat cells were treated with 5 ng/ml of FasL without (A) or with cyclohexamide (CHX) (B) to induce apoptosis, or 5 ng/ml FasL, 1 μg/ml of CHX and 100 μM of zVAD.fmk to induce CICD (B). […] Cell viability was determined after 24 hours of incubation with indicated reagents using CellTiter-Glo ATP assay. The values represent viability relative to the control Jurkat cells without the treatment of FasL, which was set as 100% viability.
FIG. 34A is a graph showing the results of treating Jurkat T cells with Fas ligand (5 ng/ml), cyclohexamide (1 μg/ml) and zVAD (100 μM) in the presence of the indicated amounts of anti-necrotic compounds (4) and (5). Viability was determined 36 hours later using an ATP assay. The viability values are relative to the samples lacking Fas ligand, which were used as 100% viability controls. FIG. 34B is a graph as in FIG. 34A, in which the anti-necrotic compounds are (19) and (20).
Compounds were also tested in another necrosis assay utilizing human Jurkat T cells, Fas ligand to induce cell death, and zVAD to inhibit the apoptosis pathway. After 36 hours, cell viability was measure by the commercial CellTiter ATP cell viability assay (Promega).

L929 cells = test: TNFα-induced CICD of L929 cells, ATP assay; format: cell-based, mouse; conditions: no caspase inhibitor
Description: Cell viability was determined using ATP-Lite-M ATP assay (Packard). The values represent viability relative to the control lacking TNFα, which was set as 100% viability.
Cell viability in this and subsequent panels was determined by ATP-based viability assay. Numbers represent percentages of the live cells normalized to those in the untreated control wells. Throughout, error bars represent standard deviations. […] Numbers represent viability normalized to that of the corresponding compound-treated cells in the absence of FasL. […] Numbers represent viability normalized to that of the corresponding compound-treated cells in the absence of dimerizer. […] Cells were treated with TNFα (E, F, H), zVAD.fmk (E, F), or CHX (F) for 16 (F) or 24 (E, H) hours. Numbers represent viability normalized to that of the compound-treated cells in the absence of TNFα.

BALB/c 3T3 cells = test: CICD of BALB/c 3T3 cells induced by TNFα/zVAD.fmk; format: cell-based, mouse
[1] = tested on: FADD-deficient Jurkat T cells treated with TNF-α; test: Inhibition of necroptosis (CICD) in FADD-deficient Jurkat T cells treated with TNF-α, ATP-based viability; format: cell-based, human; conditions: for antinecroptotic (anti-CICD) activity, in words: FADD-deficient Jurkat cells, TNFα
U937 cells = test: Necrosis of U937 cells induced by TNFα and zVAD.fmk (primary and secondary screen), ATP assay; format: cell-based, human; conditions: U937, 72 hours
Description: We plated U937 cells in 384-well plates at 5,000-10,000 cells per well in 40-μl phenol red-free RPMI 1640 medium containing 100 μM zVAD.fmk and 40 ng ml^−1 human TNFα using a Multidrop dispenser (Thermo Electron). We added 100 nl of the DiverSetE (5 mg ml^−1 in DMSO, Chembridge) using a Seiko-based custom-built pin transfer robot (Institute of Chemistry and Cell Biology, Harvard Medical School). After 72 hours, we assessed cell viability using a luminescence-based ATP assay (ATPLite-M, PerkinElmer). We also dispensed cells not treated with TNFα in each plate as a positive control. We purchased Nec-1 and other preliminary positive hits from Chembridge for individual retesting.
Using a known paradigm of death receptor mediated caspase-independent cell death in human U937 cells, we established a high-throughput screen in 384 well format for small molecule inhibitors of caspase-independent cell death (CICD). In this system, U937 cells were induced to undergo CICD in the presence of TNFα and zVAD.fmk, and the rate of cell death was determined by an ATP-Lite-M assay, a commercial luminescence-based assay measuring cellular ATP levels (Packard). U937 cells were chosen because these cells can be induced to undergo CICD very efficiently upon TNFα/zVAD treatment in the absence of additional, stress-inducing sensitizing stimuli, such as CHX, making this system perfectly suited for reliable identification of CICD inhibitors. Furthermore, rapid suspension growth kinetics of U937 cells results in the availability of large quantities of cells, which translates into robust signals ideal for high throughput screening. ATP-Lite-M assay was chosen because among all the different assay systems tested, it gives the most consistent and robust signal, which is also critical for high throughput screening. Exposure of U937 cells to TNFα alone led to partial cell death, whereas co-treatment with TNFα and caspase inhibitor zVAD.fmk produced significant increase in the amount of cell death and ATP loss consistent with the published observations. In addition, in the presence of zVAD.fmk, the morphology of cell loss changed from apoptosis with cell shrinkage, nuclear fragmentation, membrane blebbing to necrosis, characterized by cell swelling, increase in cytosolic density, and early loss of plasma membrane integrity. Other cell death assays, such as an MTT assay (mitochondrial metabolism) and Sytox assay (permeability of the plasma membrane), were used as alternative means to validate the screen, and consistently produced results similar to those obtained using ATP-Lite-M assay, which confirmed that the ATP-Lite-M assay can be used to accurately measure the extent of CICD.
In a primary screen, U-937 cells (5×10^5 or 7.5×10^5 cells/ml) were first exposed to zVAD-fmk (100 μM). Thirty minutes later the same cells were exposed to a chemical compound from the library (5 mg/ml, dissolved in 0.1-0.5 μl of DMSO, giving a final DMSO concentration of 0.3% to 1.5%). After an additional thirty minutes, TNFα (40 ng/ml) was added to the cell culture medium. The cells were then incubated at 37 C for 72 hours, and were then assayed for cellular ATP levels. […] Compounds which maintained cellular ATP levels were compounds which blocked necrosis triggered by zVAD-fmk and TNFα.
In a secondary screen, the compounds identified from the first screen, above, to decrease necrosis induced by zVAD-fmk and TNFα were assayed for their potency. Serial dilution of each chemical compound was performed and the compounds were administered to U-937 cells, as per the primary screen. The concentrations of each compound were 70 μM, 23 μM, 8 μM, and 2.5 μM. The level of necrosis occurring in response to zVAD-fmk, TNFα, and the various concentrations of chemical compounds was assayed as described above for the primary screen.

U-937 cells = test: Necrosis of low density U-937 cells induced by zVAD-fmk and DMSO, ATP levels; format: cell-based, human; conditions: U-937 1×10^5 cells/ml, 72 hours
Description: Methods for the identification of chemical compounds that decrease cell necrosis induced, for example, by zVAD-fmk/DMSO at a low cell density (e.g., 1×10^5 cells/ml) are achieved essentially as described above, except, the inducer of necrosis is zVAD-fmk/DMSO, rather than zVAD-fmk/TNFα.
Exposure of low density U-937 cells (1×10^5 cells/ml) to zVAD-fmk (100 μM) and DMSO (0.5%) for 72 hours results in cell death by necrosis. The compounds identified to decrease cell necrosis triggered by zVAD-fmk and TNFα, compounds 115807, 115681, 210227, and 215686 from the ChemBridge chemical library, were also evaluated for their ability to decrease cell necrosis induced by zVAD-fmk and DMSO. The cells (1×10^5 cells/ml) were first exposed to zVAD-fmk, and then thirty minutes later to the above-identified small molecules that decrease necrosis. After an additional 30 minutes, the cells were exposed to DMSO. 72 hours after exposure to the compounds, cellular ATP levels were measured, as described above.

RIP1 = target: T1, RIP1 (Homo sapiens, UniProt Q13546); test: In vitro kinase assay: autophosphorylation of immunoprecipitated RIP1; format: biochemical; conditions: radioactive ATP, 30 min at 30° C., autoradiography
T1 construct: RIP has been immunoprecipitated (IP) from lysates of WT and RIP-deficient Jurkat cells using agarose-conjugated anti-RIP antibody; endogenous in cells; host or cells: Jurkat (wild type)

primary cortical neurons = test: Oxygen-glucose deprivation (OGD) induced death of primary cortical neurons, MAP2 cytoblot; format: cell-based; conditions: OGD 90 minutes, 24 hours recovery; 30 μM
Description: Cells were allowed to recover in the presence of the compounds (except for the CNQX/MK801) for 24 hours, and specific neuronal viability was determined using MAP2 cytoblot. Values represent the percentages of live cells normalized to the compound treated cells, which were maintained in glucose-containing, non-deoxygenated media. **—P<0.02. […] Cells were allowed to recover in the presence of the compounds for 24 hours, and specific neuronal viability was determined using MAP2 cytoblot. Values represent the percentages of live cells normalized to the compound treated cells, which were maintained in glucose-containing, non-deoxygenated media. **—P<0.04.

CD8+ cells = test: Activation and proliferation of CD8+ cytotoxic T lymphocytes (CTL) suppressed by zVAD.fmk; format: cell-based, mouse; conditions: 100 μM zVAD.fmk, 30 μM compound
Description: Numbers of cells were determined using FACS analyses. Cell numbers are normalized to the number of cells in unstimulated control, which was set as 100%. […] Cells were stained with αCD8^+-FITC antibody (Pharmingen) and CD8^+ cell numbers were determined by FACS. Cell numbers are normalized to the number of cells in unstimulated control, which was set as 100%. Percentages of dead cells (line) was determined by co-staining cells with propidium iodide.
Values represent fold increase over unstimulated control.
Cells were stained with αCD8^+-FITC antibody (Pharmingen), and CD8^+ cell numbers were determined by FACS. Cell numbers are normalized to the number of cells in unstimulated control, which was set as 100%. Percentages of dead cells (line) were determined by co-staining cells with propidium iodide.

[2] = tested on: FADD deficient Jurkat cells; conditions: compound in the absence of TNFα
[3] = tested on: Primary mouse CD4+ and CD8+ T cells; test: Activation-induced cell death (AICD) of primary CD4+ and CD8+ T cells; format: cell-based; conditions: re-activated CD4+ cells
Description: Cell viability was assessed using Sytox Green (Molecular Probes) (CD8) or propidium iodide exclusion (CD4) assays in FIG. 17A or ATP assay in FIG. 17B. Numbers represent the percentages of live cells normalized to the corresponding compound treated controls lacking αCD3.

T1 sequence (Q13546 whole entry): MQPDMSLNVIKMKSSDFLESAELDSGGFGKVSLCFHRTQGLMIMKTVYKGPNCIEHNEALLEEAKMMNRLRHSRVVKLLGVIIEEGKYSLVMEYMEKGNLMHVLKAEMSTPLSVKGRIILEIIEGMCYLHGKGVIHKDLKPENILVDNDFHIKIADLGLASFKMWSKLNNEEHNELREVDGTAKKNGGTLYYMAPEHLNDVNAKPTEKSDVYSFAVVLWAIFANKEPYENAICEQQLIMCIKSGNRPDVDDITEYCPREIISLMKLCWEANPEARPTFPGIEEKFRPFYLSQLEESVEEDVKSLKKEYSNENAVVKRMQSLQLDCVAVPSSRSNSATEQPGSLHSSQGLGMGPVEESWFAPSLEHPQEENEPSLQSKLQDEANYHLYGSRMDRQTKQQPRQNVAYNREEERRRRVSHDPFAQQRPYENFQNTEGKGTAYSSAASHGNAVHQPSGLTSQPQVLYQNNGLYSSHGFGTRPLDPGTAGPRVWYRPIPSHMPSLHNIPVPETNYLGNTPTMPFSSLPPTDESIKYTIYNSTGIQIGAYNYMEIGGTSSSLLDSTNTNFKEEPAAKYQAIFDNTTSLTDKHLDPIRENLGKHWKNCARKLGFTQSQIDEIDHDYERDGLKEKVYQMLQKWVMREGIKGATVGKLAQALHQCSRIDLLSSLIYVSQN

CCCNC(=O)[C@H]1O[C@@H]1C(=O)N[C@H](C(=O)N1CCC[C@H]1C(=O)OC)[C@@H](C)CC [Ca-074-Me, reference compound]
inhibition of CICD/necrosis of Jurkat cells, in words (Jurkat T cells): inhibits CICD in Jurkat and 3T3 cells | protection of L929 cells from TNFα-induced CICD, in words (L929 cells): neither these compounds nor geldanamycin work in L929 cells | inhibition of CICD in 3T3 cells, in words (BALB/c 3T3 cells): inhibits CICD in Jurkat and 3T3 cells

Cn1cnc(N)c2ncnc1-2 [Compound 3MA, 3-methyladenine, reference compound]
antinecroptotic (anti-CICD) activity, in words [1]: necroptosis proceeded normally in the presence of 3-methyladenine (3MA) | inhibition of CICD in 3T3 cells, in words (BALB/c 3T3 cells): necroptosis proceeded normally in the presence of 3-methyladenine (3MA)

Cc1cc(O)c(C(=O)/C=C/c2ccc(O)c([N+](=O)[O-])c2)c(=O)o1 [Compound 115681]
inhibition of necrosis induced by TNFα/zVAD.fmk, in words (U937 cells): identified to decrease necrosis in response to exposure of the cell to zVAD-fmk and TNFα | decrease of necrosis induced by zVAD-fmk/DMSO, in words (U-937 cells): also decreased necrosis induced by zVAD-fmk/DMSO

CN1C(=O)C(Cc2c[nH]c3ccccc23)NC1=S (stereo not shown) [Compound 115807]
inhibition of necrosis induced by TNFα/zVAD.fmk, in words (U937 cells): identified to decrease necrosis in response to exposure of the cell to zVAD-fmk and TNFα | decrease of necrosis induced by zVAD-fmk/DMSO, in words (U-937 cells): also decreased necrosis induced by zVAD-fmk/DMSO

COc1ccc(/C=C/C(=O)/C=C/c2ccc(OC)c(OC)c2)cc1OC [Compound 215686]
inhibition of necrosis induced by TNFα/zVAD.fmk, in words (U937 cells): identified to decrease necrosis in response to exposure of the cell to zVAD-fmk and TNFα | decrease of necrosis induced by zVAD-fmk/DMSO, in words (U-937 cells): also decreased necrosis induced by zVAD-fmk/DMSO

O=C1NC(=S)NC1Cc1c[nH]c2ccccc12 (stereo not shown) [Nec-1i]
antinecroptotic (anti-CICD) activity, in words [1]: does not inhibit CICD in vitro; also recorded: completely abolished antinecroptotic activity | inhibition of RIP1 autophosphorylation, in words (RIP1): showed significantly reduced activity in inhibiting RIP1 autophosphorylation | protection from OGD-induced neuronal death, in words (primary cortical neurons): failed to rescue neuronal cell death | restoration of CTL activation/proliferation suppressed by zVAD.fmk, in words (CD8+ cells): does not affect T cell proliferation; also recorded: failed to restore T cell proliferation

COc1ccc2c(c1)C1=NN(C(C)=O)C(c3ccc(F)cc3)C1CC2 (stereo not shown) [Nec-3]
EC50 ([1]; Homo sapiens, Jurkat, concentration required to rescue 50% of cell death, TNFα for 36 hours, ATP assay, read-out: EC50): 970 nM | inhibition of necrosis induced by TNFα/zVAD.fmk, in words (U937 cells; listed as 140): identified as an inhibitor of necrosis | inhibition of necrosis induced by TNFα/zVAD.fmk, in words (U937 cells; listed as 210227): identified to decrease necrosis in response to exposure of the cell to zVAD-fmk and TNFα | decrease of necrosis induced by zVAD-fmk/DMSO, in words (U-937 cells): also decreased necrosis induced by zVAD-fmk/DMSO | LD50 [2]: 143 µM

COC(=O)C[C@H](NC(=O)[C@H](C)NC(=O)[C@@H](NC(=O)OCc1ccccc1)C(C)C)C(=O)CF [zVAD.fmk, N-benzyloxycarbonyl-Val-Ala-Asp-(OMe) fluoromethyl ketone, reference compound] (Cbz-Val-Ala-Asp(OMe)-CH2F)
protection from OGD-induced neuronal death, in words (primary cortical neurons): did not detect any protection by zVAD.fmk | effect on AICD, compound alone, in words [3]: only partially protective
